Laboratory results published in patent US20140158116A1, “INHIBITING TRPA1 FOR THE TREATMENT OF ASTHMA” (Cubist Pharmaceuticals, Inc., priority 2012, published 2014).
Entries after “also recorded” stand apart in the source; their conditions may differ.

Columns and labels:
[1] = tested on: CFA-induced cold allodynia; test: Complete Freund's Adjuvant (CFA) cold allodynia rodent pain model; type: in vivo; conditions: vehicle 19.8
Protocol: The compound of Formula (Ia) is also active in rodent models of pain in vivo induced by cold allodynia following chronic Complete Freund's Adjuvant-induced inflammation, as described in Example 6. […] The compound of Formula (Ia), the comparator compound of Formula (II) and ketoprofen were tested by the CFA-induced pain test method reported in del Camino et al., J. Neurosci., 30(45):15165-15174, incorporated herein by reference in its entirety. Briefly, the hind paw was sensitized to cold temperature (allodynic), by administering 0.1 mL of Complete Freund's Adjuvant (CFA) to the left hind paw. 2-3 days later, the time taken for the animal to lift its CFA-injected paw was recorded compared to its un-injected normal right hind paw. […] To avoid tissue damage the maximum cut-off time was 5 minutes. Animals that were allodynic (average PWL to the first three pain behaviors <150 seconds for the CFA-injected hind paw: ˜≧50% difference between the normal and CFA-injected paw) were included in the study and subsequently randomized across treatment groups. The following day, the animals were dosed under blinded conditions. Following the 1-2 hour pre-treatment time, the post-dose PWL readings were again taken. The efficacy of the drug treatment was assessed by comparing the PWL in the drug treatment animals to those animals that received the vehicle.

[2] = tested on: incisional spontaneous pain (guarding); test: Surgical incision (Brennan) pain behavior rodent model; type: in vivo, rat
Protocol: The compound of Formula (Ia) is also active in rodent models of pain in vivo induced by incision of the plantar surface of the hind paw (i.e., the “Brennan Surgical Model”), as described in Example 7. […] Thirty (30) mg/kg of the compound of Formula (Ia) delivered intraperitoneally (2 doses of 15 mg/kg before and immediately after the surgery) reduces spontaneous pain for up to 2 hours after surgery (FIG. 4). The compound of Formula (Ia), the comparator compound of Formula (III) and ketoprofen were tested by the incisional pain test method reported in Brennan et al., Pain, 1996 March; 64(3):493-501 incorporated herein by reference in its entirety. Briefly, in rats under anesthesia, a 1 cm incision through skin and underlying muscle was made in the bottom of one hind paw. The incision was sutured closed and the animals allowed to regain consciousness in their home cage before being placed on a special mesh rack. The blinded observer subjectively assessed and recorded each animal's pain score every 5 minutes for 1 hour. Pain scores were assigned as follows: Score of 0=Injured paw was held flat on the rack and was bearing weight (=uninjured paw); 1=Injured paw was slightly lifted from the rack but was bearing some weight; 2=Injured paw was flat but was bearing no weight, or heel was lifted high off the rack with only toes touching. At the end of each hour, pain scores were added up and the final score recorded ([…]). In a typical study the efficacy of the drug treatment was determined by comparing the cumulative guarding scores at 1-2 and 3-4 hours following surgical injury to the cumulative guarding scores of animals that received the vehicle.

[3] = 7-day repeat dose i.p. screening toxicity study in rats; type: in vivo, rat; conditions: female rats, 50 mg/kg/day i.p. for 7 consecutive days
Protocol: The compound of Formula (Ia) was evaluated in a 7-day repeat dose screening toxicity study in female rats. In order to maximize systemic exposure, rats were administered compound of Formula (Ia) i.p. at 50 mg/kg/day for 7 consecutive days, to obtain the results shown in FIG. 6. Clinical chemistry parameters were evaluated on Days 3 and 8. Histopathology was performed on select organs including the liver, kidney, spleen, and lung.

[4] = Single ascending dose Phase 1A study; type: in vivo, human; conditions: healthy male volunteers; 6 ascending single doses
Text: A randomized, double-blind, placebo-controlled, cross-over, single dose, safety, tolerability and pharmacokinetic study of 6 ascending doses of the compound of Formula (Ia) was undertaken in two cohorts of healthy male volunteers. A total of eighteen eligible healthy mail volunteers were recruited utilizing an alternating panel design. The first cohort of nine subjects (Cohort 1) was sequentially enrolled into 3 of 6 dosing periods (Dose Levels 1, 3, and 5). The remaining cohort of nine subjects (Cohort 2) was enrolled in the other 3 dosing periods (Dose Levels 2, 4, and 6). Within each dosing period, subjects were randomly assigned 2:1 to the compound of Formula (I) (n=6) or placebo (n=3). Each subject received one dose of placebo and two different doses of the compound of Formula (I) over the course of their participation in all three dosing periods. Subjects were equally randomized to one of 3 possible sequences, namely 1) placebo, active, active, 2) active, placebo, active, and 3) active, active, placebo.

C[C@H]1CCCN1c1ncc(-c2cccc(NC(=O)Cn3cnc4c3c(=O)n(C)c(=O)n4C)n2)cn1 [Formula (Ia)]
Change in Paw Withdrawal Latency ([1]; 1 mg/kg i.p., cold plate): 38.4 | Change in Paw Withdrawal Latency ([1]; 5 mg/kg i.p.): 45.0 | Change in Paw Withdrawal Latency ([1]; 10 mg/kg i.p.): 117.6 | Change in Paw Withdrawal Latency ([1]; 30 mg/kg i.p.): 134.4 | Change in Paw Withdrawal Latency ([1]; 50 mg/kg i.p.): 177.8 | time after surgery for which spontaneous pain is reduced ([2]; 30 mg/kg intraperitoneally (2 doses of 15 mg/kg before and immediately after the surgery)): up to 2 hours | reduction of spontaneous pain compared with ketoprofen ([2]; 60 mg/kg i.p. versus ketoprofen 2 doses of 2 mg/kg intraperitoneally): equivalent to ketoprofen; also recorded: better than ketoprofen | time after surgery for which spontaneous pain is reduced ([2]; 60 mg/kg intraperitoneally (2 doses of 30 mg/kg before and immediately after the surgery)): up to 4 hours | clinical signs, body weight, clinical chemistry parameters [3]: no adverse clinical signs, changes in body weight, or changes in clinical chemistry parameters were noted | histopathology of liver, kidney, spleen, lung ([3]; 50 mg/kg/day): No histopathological findings in the liver, kidney, spleen, or lung were observed; also recorded: no adverse effects related to the compound of Formula (Ia) were identified | safety signals [4]: no safety signals seen that were attributable to the compound of Formula (Ia)
